According to patent US20250241892A1, “5-METHOXY-N,N-[…][…] THE TREATMENT OF PSYCHOMOTOR RETARDATION” (GH RESEARCH IRELAND LIMITED, priority 2022, published 2025):

Test system: patients with postpartum depression (PPD)
Assay: Clinical trial of inhaled 5-MeO-DMT in postpartum depression
Conditions: 1 patient
Description: The single-arm, open-label clinical trial will involve 15 adult female patients with clinically diagnosed postpartum depression (PPD).
The second dose (12 mg) will only be administered if: • a. A peak experience (total score of ⋅75) has not been achieved following the 6 mg dose, and • b. The 6 mg dose was safe and well-tolerated according to the investigator, • c. Any psychoactive effects (PsE) of the prior dose have subsided, and • d. Pre-dose vital parameters and forced expiratory volume in one second (FEV1) are in normal range, or if outside of the normal range, are not clinically significant according to the investigator. • 3. Similarly, a third dose (18 mg) will only be administered if: • a. A peak experience (total score of ⋅75) has not been achieved following the 12 mg dose, and • b. The 12 mg dose was safe and well-tolerated according to the investigator, and • c. Any PsE of the prior dose have subsided, and • d. Pre-dose vital parameters and forced expiratory volume in one second (FEV1) are in normal range, or if outside of the normal range, are not clinically significant according to the investigator.
The patients will be assessed for a peak psychedelic experience (based on a patient-scored visual analogue scale, the PE scale), sedation, and other endpoints after dosing. Follow-up visits are planned for Day 1, and Day 7 after the dosing day.
The following criteria must be met by all patients considered for clinical trial participation: • 1. Is female and in the age range between 18 and 45 years (inclusive) at screening. • 2. Has a body mass index (BMI) in the range of 18.5 and 35 kg/m^2 (inclusive) at screening. • 3. Meets the trial criteria for PPD as assessed by a trial psychiatrist or registered psychologist: • a. Diagnosis of Major Depressive Disorder without psychotic features, confirmed by the Mini-International Neuropsychiatric Interview (MINI), with peri-partum onset that began no earlier than gestation and no later than the first 4 weeks postpartum. • b. Has a Montgomery-Åsberg Depression Rating Scale (MADRS) total score of equal to or greater than 28 at screening and pre-dose on Day 0. • 6. […] Patients must have a negative pregnancy test at screening and on the pre-test day (Day −1). • 5. Is willing to delay start of other antidepressant or anxiety medication until after the end of the trial at Day 7 and agrees to keep any psychotherapy unchanged during the trial.
A potential patient who meets any of the following key exclusion criteria will be excluded from participation in this trial: • 1. Has, based on history, psychiatric assessment, and evaluation of the MINI, a current or prior diagnosis of bipolar disorder, a manic or hypomanic episode, a psychotic disorder, Major Depressive Disorder (MDD) or other mood disorder with psychotic features, obsessive compulsive disorder, post-traumatic stress disorder (PTSD), autism spectrum disorder, borderline personality disorder, schizophrenia, delusional disorder, paranoid personality disorder, schizoaffective disorder, clinically significant intellectual disability, or any other psychiatric comorbidity that renders the patient unsuitable for the trial according to the investigator's judgment. • 2. Has one or more first or second degree relatives with a current or previously diagnosed bipolar disorder, psychotic disorder or other mood disorder (including MDD) with psychotic features. • 3. Is in the judgement of a trial psychiatrist or registered psychologist, at significant risk for suicide based on history, psychiatric assessment, and evaluation of suicidal ideation and suicidal behaviour based on the Columbia-Suicide Severity Rating Scale (C-SSRS). • 4. Has taken anti-depressive medication within 14 days or 5 half-lives (whichever is longer) prior to dosing (exception: within the last 5 weeks in the case of fluoxetine). • 5.

## COc1ccc2[nH]cc(CCN(C)C)c2c1 [5-MeO-DMT]
  ECG (3 hours), safety laboratory analyses (7 days), CADSS (3 hours, 1 day, 7 days): unremarkable
  Reported adverse events (cramping left abdominal pain and headache, Day 0): mild, short-lasting and resolved spontaneously
  Standard criteria for MADRS remission (MADRS total score equal or less than 10): fulfilled
  Standard criteria for MADRS response (at least 50% improvement from baseline): fulfilled
  Tolerability of the inhalation procedure: well tolerated with no inhalation-related adverse events
2 hr vs baseline
  MADRS Apparent sadness improvement: 5
  MADRS Concentration Difficulties improvement: 0
  MADRS Inability to Feel improvement: 3
  MADRS Inner Tension improvement: 5
  MADRS Lassitude improvement: 3
  MADRS Pessimistic Thoughts improvement: 4
  MADRS Reduced Sleep improvement: 0
  MADRS Reduced appetite improvement: 0
  MADRS Reported sadness improvement: 4
  MADRS Suicidal Thoughts improvement: 0
2 hr, baseline 0
  MADRS Concentration Difficulties score: 0
  MADRS Reduced appetite score: 0
  MADRS Suicidal Thoughts score: 0
2 hr, baseline 3
  MADRS Inability to Feel score: 0
  MADRS Lassitude score: 0
2 hr, baseline 4
  MADRS Pessimistic Thoughts score: 0
  MADRS Reported sadness score: 0
2 hr, baseline 5
  MADRS Apparent sadness score: 0
  MADRS Inner Tension score: 0
  MADRS Reduced Sleep score: 5
Day 1, baseline 0
  MADRS Concentration Difficulties score: 0
  MADRS Reduced appetite score: 0
  MADRS Suicidal Thoughts score: 0
Day 1, baseline 1
  BPRS Blunted affect score: 1
  BPRS Conceptual disorganization score: 1
  BPRS Disorientation score: 1
  BPRS Grandiosity score: 1
  BPRS Hallucinatory behaviour score: 1
  BPRS Hostility score: 1
  BPRS Mannerisms and Posturing score: 1
  BPRS Motor retardation score: 1
  BPRS Suspiciousness score: 1
  BPRS Uncooperativeness score: 1
  BPRS Unusual Thought Content score: 1
Day 1, baseline 2
  BPRS Excitement score: 1
Day 1, baseline 3
  MADRS Inability to Feel score: 0
  MADRS Lassitude score: 0
Day 1, baseline 4
  MADRS Pessimistic Thoughts score: 0
  MADRS Reported sadness score: 0
Day 1, baseline 5
  BPRS Emotional withdrawal score: 1
  MADRS Apparent sadness score: 0
  MADRS Inner Tension score: 0
  MADRS Reduced Sleep score: 0
Day 1, baseline 6
  BPRS Depressive Mood score: 1
  BPRS Guilt feelings score: 1
  BPRS Somatic Concern score: 1
  BPRS Tension score: 1
Day 1, baseline 7
  BPRS Anxiety score: 1
Day 1 vs baseline
  BPRS Anxiety improvement: 6
  BPRS Blunted affect improvement: 0
  BPRS Conceptual disorganization improvement: 0
  BPRS Depressive Mood improvement: 5
  BPRS Disorientation improvement: 0
  BPRS Emotional withdrawal improvement: 4
  BPRS Excitement improvement: 1
  BPRS Grandiosity improvement: 0
  BPRS Guilt feelings improvement: 5
  BPRS Hallucinatory behaviour improvement: 0
  BPRS Hostility improvement: 0
  BPRS Mannerisms and Posturing improvement: 0
  BPRS Motor retardation improvement: 0
  BPRS Somatic Concern improvement: 5
  BPRS Suspiciousness improvement: 0
  BPRS Tension improvement: 5
  BPRS Uncooperativeness improvement: 0
  BPRS Unusual Thought Content improvement: 0
  MADRS Apparent sadness improvement: 5
  MADRS Concentration Difficulties improvement: 0
  MADRS Inability to Feel improvement: 3
  MADRS Inner Tension improvement: 5
  MADRS Lassitude improvement: 3
  MADRS Pessimistic Thoughts improvement: 4
  MADRS Reduced Sleep improvement: 5
  MADRS Reduced appetite improvement: 0
  MADRS Reported sadness improvement: 4
  MADRS Suicidal Thoughts improvement: 0
Day 7, Day 0 score 0
  BIMF item 2 (I feel rested) score: 2
  BIMF item 19 (getting better at taking care of my baby) score: 1
Day 7, Day 0 score 2
  BIMF item 18 (Anxiety or worry often interferes with my mothering ability) score: 5
Day 7, Day 0 score 3
  BIMF item 16 (I worry about how other people judge me) score: 5
Day 7, Day 0 score 4
  BIMF item 13 (taking good care of my physical needs) score: 5
Day 7, Day 0 score 5
  BIMF item 4 (My baby and I understand each other) score: 5
  BIMF item 5 (able to relax and enjoy time with my baby) score: 6
  BIMF item 9 (getting enough encouragement from other people) score: 6
  BIMF item 10 (I trust my own feelings (instincts)) score: 6
  BIMF item 11 (a little time each week to do something for myself) score: 6
  BIMF item 15 (My baby and I are getting into a routine) score: 6
  BIMF item 17 (able to take care of my baby and my other responsibilities) score: 5
Day 7, Day 0 score 6
  BIMF item 1 (I am a good mother) score: 6
  BIMF item 3 (comfortable with the way I've chosen to feed my baby) score: 6
  BIMF item 6 (people in my life that I can trust to care for my baby) score: 6
  BIMF item 8 (getting enough adult interaction) score: 6
  BIMF item 12 (taking good care of my baby's physical needs) score: 6
  BIMF item 14 (good decisions about my baby's health and well being) score: 6
  BIMF item 20 (satisfied with the job I am doing as a new mother) score: 5
Day 7, baseline 0
  MADRS Concentration Difficulties score: 0
  MADRS Reduced appetite score: 0
  MADRS Suicidal Thoughts score: 0
Day 7, baseline 1
  BPRS Blunted affect score: 1
  BPRS Conceptual disorganization score: 1
  BPRS Disorientation score: 1
  BPRS Grandiosity score: 1
  BPRS Hallucinatory behaviour score: 1
  BPRS Hostility score: 1
